From US20110166191A1, “3-(2-amino-ethyl)-5-(3-cyclohexyl-propylidene)-thiazolidine-2,4-dione and its derivatives as multiple signaling pathway inhibitors and for the treatment of cancer” (priority 2010, published 2011)

Assays:
[1] = test system: TK-10; experiment: NCI 60 cell line panel screening; assay type: cell-based; details: Homo sapiens, Renal Cancer, read-out: Growth Inhibition (GI50)
Source text: (§1) Compound 3-(2-aminoethyl)-5-(3-cyclohexylpropylidene)thiazolidine-2,4-dione was screened at five concentrations in National Cancer Institute (NCI) 60-cell line panel according to NCI's protocol for growth inhibition.

[2] = test system: U251; experiment: NCI 60 cell line panel screening; assay type: cell-based; details: Homo sapiens, U-251, CNS Cancer, read-out: Growth Inhibition (GI50)
Source text: as §1

[3] = test system: NCI/ADR-RES; experiment: NCI 60 cell line panel screening; assay type: cell-based; details: Homo sapiens, Ovarian Cancer, read-out: Growth Inhibition (GI50)
Source text: as §1

[4] = test system: MCF7; experiment: NCI 60 cell line panel screening; assay type: cell-based; details: Homo sapiens, Breast Cancer, read-out: Growth Inhibition (GI50)
Source text: as §1

[5] = test system: OVCAR-5; experiment: NCI 60 cell line panel screening; assay type: cell-based; details: Homo sapiens, Ovarian Cancer, read-out: Growth Inhibition (GI50)
Source text: as §1

[6] = test system: SK-MEL-28; experiment: NCI 60 cell line panel screening; assay type: cell-based; details: Homo sapiens, Melanoma, read-out: Growth Inhibition (GI50)
Source text: as §1

[7] = test system: HT29; experiment: NCI 60 cell line panel screening; assay type: cell-based; details: Homo sapiens, HT-29, Colon Cancer, read-out: Growth Inhibition (GI50)
Source text: as §1

[8] = test system: NCI-H322M; experiment: NCI 60 cell line panel screening; assay type: cell-based; details: Homo sapiens, Non-Small Cell Lung Cancer, read-out: Growth Inhibition (GI50)
Source text: as §1

[9] = test system: SNB-75; experiment: NCI 60 cell line panel screening; assay type: cell-based; details: Homo sapiens, CNS Cancer, read-out: Growth Inhibition (GI50)
Source text: as §1

[10] = test system: UACC-62; experiment: NCI 60 cell line panel screening; assay type: cell-based; details: Homo sapiens, Melanoma, read-out: Growth Inhibition (GI50)
Source text: as §1

[11] = test system: HCT-15; experiment: NCI 60 cell line panel screening; assay type: cell-based; details: Homo sapiens, Colon Cancer, read-out: Growth Inhibition (GI50)
Source text: as §1

[12] = test system: NCI-H226; experiment: NCI 60 cell line panel screening; assay type: cell-based; details: Homo sapiens, Non-Small Cell Lung Cancer, read-out: Growth Inhibition (GI50)
Source text: as §1

[13] = test system: SNB-19; experiment: NCI 60 cell line panel screening; assay type: cell-based; details: Homo sapiens, CNS Cancer, read-out: Growth Inhibition (GI50)
Source text: as §1

[14] = test system: SF-295; experiment: NCI 60 cell line panel screening; assay type: cell-based; details: Homo sapiens, CNS Cancer, read-out: Growth Inhibition (GI50)
Source text: as §1

[15] = test system: MDA-MB-468; experiment: NCI 60 cell line panel screening; assay type: cell-based; details: Homo sapiens, Breast Cancer, read-out: Growth Inhibition (GI50)
Source text: as §1

[16] = test system: SW-620; experiment: NCI 60 cell line panel screening; assay type: cell-based; details: Homo sapiens, Colon Cancer, read-out: Growth Inhibition (GI50)
Source text: as §1

[17] = test system: UACC-257; experiment: NCI 60 cell line panel screening; assay type: cell-based; details: Homo sapiens, Melanoma, read-out: Growth Inhibition (GI50)
Source text: as §1

[18] = test system: SK-MEL-2; experiment: NCI 60 cell line panel screening; assay type: cell-based; details: Homo sapiens, Melanoma, read-out: Growth Inhibition (GI50)
Source text: as §1

[19] = test system: DU-145; experiment: NCI 60 cell line panel screening; assay type: cell-based; details: Homo sapiens, Prostate Cancer, read-out: Growth Inhibition (GI50)
Source text: as §1

[20] = test system: CCRF-CEM; experiment: NCI 60 cell line panel screening; assay type: cell-based; details: Homo sapiens, Leukemia, read-out: Growth Inhibition (GI50)
Source text: as §1

[21] = test system: OVCAR-3; experiment: NCI 60 cell line panel screening; assay type: cell-based; details: Homo sapiens, Ovarian Cancer, read-out: Growth Inhibition (GI50)
Source text: as §1

[22] = test system: MOLT-4; experiment: NCI 60 cell line panel screening; assay type: cell-based; details: Homo sapiens, Leukemia, read-out: Growth Inhibition (GI50)
Source text: as §1

[23] = test system: NCI-H460; experiment: NCI 60 cell line panel screening; assay type: cell-based; details: Homo sapiens, Non-Small Cell Lung Cancer, read-out: Growth Inhibition (GI50)
Source text: as §1

[24] = test system: M14; experiment: NCI 60 cell line panel screening; assay type: cell-based; details: Homo sapiens, Melanoma, read-out: Growth Inhibition (GI50)
Source text: as §1

[25] = test system: LOX IMVI; experiment: NCI 60 cell line panel screening; assay type: cell-based; details: Homo sapiens, Melanoma, read-out: Growth Inhibition (GI50)
Source text: as §1

[26] = target: T1, MST2 (Homo sapiens, UniProt Q13188); experiment: In vitro kinase screening; assay type: biochemical; details: MST2, 10 μM concentration
T1 construct: Caliper Life Sciences
Procedure: (§2) Formula II [3-(2-aminoethyl)-5-(3-cyclohexylpropylidene)thiazolidine-2,4-dione] was screened against a panel of kinases at 10 μM concentration by Caliper Life Sciences according to their established protocol.

[27] = test system: CAMK2; experiment: In vitro kinase screening; assay type: biochemical; details: CAMK2, 10 μM concentration
Procedure: as §2

[28] = target: T2, FLT3 (Homo sapiens, UniProt P36888); experiment: In vitro kinase screening; assay type: biochemical; details: FLT3, 10 μM concentration
T2 construct: Caliper Life Sciences (screening service)
Procedure: as §2

[29] = target: T3, ABL (Homo sapiens, UniProt P00519); experiment: In vitro kinase screening; assay type: biochemical; details: 10 μM concentration
T3 construct: Caliper Life Sciences (screening service)
Procedure: as §2

[30] = target: T4, CAMk4 (Homo sapiens, UniProt Q16566); experiment: In vitro kinase screening; assay type: biochemical; details: CAMk4, 10 μM concentration
T4 construct: Caliper Life Sciences (screening service)
Procedure: as §2

[31] = target: T5, PI3Ka (Homo sapiens, UniProt P42336); experiment: In vitro kinase screening; assay type: biochemical; details: 10 μM concentration
T5 construct: Caliper Life Sciences
Procedure: as §2

[32] = target: T6, MAPKAPK2 (Homo sapiens, UniProt P49137); experiment: In vitro kinase screening; assay type: biochemical; details: MAPKAPK2, 10 μM concentration
T6 construct: Caliper Life Sciences
Procedure: as §2

[33] = target: T7, GSK3b (Homo sapiens, UniProt P49841); experiment: In vitro kinase screening; assay type: biochemical; details: 10 μM concentration
T7 construct: Caliper Life Sciences (screening service)
Procedure: as §2

[34] = target: T8, INSR (Homo sapiens, UniProt P06213); experiment: In vitro kinase screening; assay type: biochemical; details: 10 μM concentration
T8 construct: Caliper Life Sciences (screening service)
Procedure: as §2

[35] = target: T9, PRAK (Homo sapiens, UniProt Q8IW41); experiment: In vitro kinase screening; assay type: biochemical; details: 10 μM concentration
T9 construct: Caliper Life Sciences
Procedure: as §2

[36] = target: T10, LYN (Homo sapiens, UniProt P07948); experiment: In vitro kinase screening; assay type: biochemical; details: 10 μM concentration
T10 construct: Caliper Life Sciences
Procedure: as §2

[37] = target: T11, PKCb2 (Homo sapiens, UniProt P05771); experiment: In vitro kinase screening; assay type: biochemical; details: PKCb2, 10 μM concentration
T11 construct: Caliper Life Sciences
Procedure: as §2

[38] = target: T12, FYN (Homo sapiens, UniProt P06241); experiment: In vitro kinase screening; assay type: biochemical; details: 10 μM concentration
T12 construct: Caliper Life Sciences (screening service)
Procedure: as §2

[39] = target: T13, PKA (Homo sapiens, UniProt P17612); experiment: In vitro kinase screening; assay type: biochemical; details: 10 μM concentration
T13 construct: Caliper Life Sciences
Procedure: as §2

[40] = target: T14, LCK (Homo sapiens, UniProt P06239); experiment: In vitro kinase screening; assay type: biochemical; details: 10 μM concentration
T14 construct: Caliper Life Sciences
Procedure: as §2

T12 sequence (P06241 whole entry): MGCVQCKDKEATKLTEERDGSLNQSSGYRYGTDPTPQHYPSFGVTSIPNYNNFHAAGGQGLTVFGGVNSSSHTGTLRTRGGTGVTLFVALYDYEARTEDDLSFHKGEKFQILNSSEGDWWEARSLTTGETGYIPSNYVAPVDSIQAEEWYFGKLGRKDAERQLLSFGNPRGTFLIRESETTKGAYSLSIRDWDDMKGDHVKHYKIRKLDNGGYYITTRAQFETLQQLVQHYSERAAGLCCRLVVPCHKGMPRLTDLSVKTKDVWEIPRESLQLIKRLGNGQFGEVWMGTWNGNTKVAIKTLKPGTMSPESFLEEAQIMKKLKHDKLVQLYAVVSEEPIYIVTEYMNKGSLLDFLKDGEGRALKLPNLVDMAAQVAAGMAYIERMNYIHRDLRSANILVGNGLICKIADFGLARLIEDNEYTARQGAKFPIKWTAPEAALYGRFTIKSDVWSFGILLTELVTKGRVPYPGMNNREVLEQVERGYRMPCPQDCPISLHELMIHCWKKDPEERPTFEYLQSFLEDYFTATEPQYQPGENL
T2 sequence (P36888 27-993): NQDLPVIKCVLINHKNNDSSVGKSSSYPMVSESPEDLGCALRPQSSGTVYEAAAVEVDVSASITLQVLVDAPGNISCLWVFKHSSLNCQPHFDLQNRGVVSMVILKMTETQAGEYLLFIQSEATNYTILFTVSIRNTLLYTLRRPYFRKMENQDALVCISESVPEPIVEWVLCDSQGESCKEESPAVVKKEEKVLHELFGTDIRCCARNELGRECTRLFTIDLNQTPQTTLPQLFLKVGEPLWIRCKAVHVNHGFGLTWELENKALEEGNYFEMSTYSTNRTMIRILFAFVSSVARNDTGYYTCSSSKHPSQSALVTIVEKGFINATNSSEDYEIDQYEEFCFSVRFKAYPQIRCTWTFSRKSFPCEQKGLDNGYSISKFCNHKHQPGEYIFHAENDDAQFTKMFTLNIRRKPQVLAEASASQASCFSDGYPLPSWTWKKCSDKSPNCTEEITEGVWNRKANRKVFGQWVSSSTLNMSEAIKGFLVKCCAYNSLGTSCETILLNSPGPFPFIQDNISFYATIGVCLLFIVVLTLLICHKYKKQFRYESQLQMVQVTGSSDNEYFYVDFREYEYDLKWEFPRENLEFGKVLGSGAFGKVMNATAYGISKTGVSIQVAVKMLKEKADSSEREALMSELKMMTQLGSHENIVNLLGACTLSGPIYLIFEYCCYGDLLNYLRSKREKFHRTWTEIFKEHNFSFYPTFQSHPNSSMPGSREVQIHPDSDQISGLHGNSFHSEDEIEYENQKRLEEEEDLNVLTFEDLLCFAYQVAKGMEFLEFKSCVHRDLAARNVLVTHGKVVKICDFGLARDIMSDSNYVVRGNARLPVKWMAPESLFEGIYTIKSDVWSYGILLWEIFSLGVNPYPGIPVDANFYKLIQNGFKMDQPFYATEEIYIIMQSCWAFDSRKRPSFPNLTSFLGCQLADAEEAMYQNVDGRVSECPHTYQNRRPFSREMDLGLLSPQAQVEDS
T3 sequence (P00519 whole entry): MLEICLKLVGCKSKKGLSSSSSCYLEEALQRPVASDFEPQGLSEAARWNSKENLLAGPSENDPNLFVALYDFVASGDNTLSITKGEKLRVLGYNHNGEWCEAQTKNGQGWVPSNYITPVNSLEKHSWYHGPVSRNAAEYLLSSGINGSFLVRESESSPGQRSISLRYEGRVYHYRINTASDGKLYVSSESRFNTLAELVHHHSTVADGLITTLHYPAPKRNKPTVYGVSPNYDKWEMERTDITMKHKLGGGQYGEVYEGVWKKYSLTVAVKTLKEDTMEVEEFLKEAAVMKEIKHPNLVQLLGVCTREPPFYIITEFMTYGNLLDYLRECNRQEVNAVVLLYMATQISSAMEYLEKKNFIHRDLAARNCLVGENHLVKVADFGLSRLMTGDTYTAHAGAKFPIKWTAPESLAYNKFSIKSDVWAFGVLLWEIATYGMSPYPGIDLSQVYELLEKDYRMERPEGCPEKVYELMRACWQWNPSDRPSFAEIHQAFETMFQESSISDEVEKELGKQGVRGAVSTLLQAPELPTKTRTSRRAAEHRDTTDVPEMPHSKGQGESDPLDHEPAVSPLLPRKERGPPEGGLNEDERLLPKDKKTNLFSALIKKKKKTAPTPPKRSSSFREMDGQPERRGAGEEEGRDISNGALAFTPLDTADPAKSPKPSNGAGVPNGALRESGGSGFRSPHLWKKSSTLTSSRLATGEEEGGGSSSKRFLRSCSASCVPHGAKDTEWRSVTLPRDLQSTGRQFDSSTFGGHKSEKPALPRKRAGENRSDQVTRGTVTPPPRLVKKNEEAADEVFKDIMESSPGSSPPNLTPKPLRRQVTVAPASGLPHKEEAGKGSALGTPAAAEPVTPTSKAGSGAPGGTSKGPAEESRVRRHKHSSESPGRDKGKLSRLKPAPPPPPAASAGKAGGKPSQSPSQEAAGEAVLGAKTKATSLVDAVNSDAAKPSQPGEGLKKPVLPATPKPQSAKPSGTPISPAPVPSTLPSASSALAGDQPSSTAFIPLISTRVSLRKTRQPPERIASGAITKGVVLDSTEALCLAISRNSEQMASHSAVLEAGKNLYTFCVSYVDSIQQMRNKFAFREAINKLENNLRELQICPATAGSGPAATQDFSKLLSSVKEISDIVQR
T8 sequence (P06213 28-1382): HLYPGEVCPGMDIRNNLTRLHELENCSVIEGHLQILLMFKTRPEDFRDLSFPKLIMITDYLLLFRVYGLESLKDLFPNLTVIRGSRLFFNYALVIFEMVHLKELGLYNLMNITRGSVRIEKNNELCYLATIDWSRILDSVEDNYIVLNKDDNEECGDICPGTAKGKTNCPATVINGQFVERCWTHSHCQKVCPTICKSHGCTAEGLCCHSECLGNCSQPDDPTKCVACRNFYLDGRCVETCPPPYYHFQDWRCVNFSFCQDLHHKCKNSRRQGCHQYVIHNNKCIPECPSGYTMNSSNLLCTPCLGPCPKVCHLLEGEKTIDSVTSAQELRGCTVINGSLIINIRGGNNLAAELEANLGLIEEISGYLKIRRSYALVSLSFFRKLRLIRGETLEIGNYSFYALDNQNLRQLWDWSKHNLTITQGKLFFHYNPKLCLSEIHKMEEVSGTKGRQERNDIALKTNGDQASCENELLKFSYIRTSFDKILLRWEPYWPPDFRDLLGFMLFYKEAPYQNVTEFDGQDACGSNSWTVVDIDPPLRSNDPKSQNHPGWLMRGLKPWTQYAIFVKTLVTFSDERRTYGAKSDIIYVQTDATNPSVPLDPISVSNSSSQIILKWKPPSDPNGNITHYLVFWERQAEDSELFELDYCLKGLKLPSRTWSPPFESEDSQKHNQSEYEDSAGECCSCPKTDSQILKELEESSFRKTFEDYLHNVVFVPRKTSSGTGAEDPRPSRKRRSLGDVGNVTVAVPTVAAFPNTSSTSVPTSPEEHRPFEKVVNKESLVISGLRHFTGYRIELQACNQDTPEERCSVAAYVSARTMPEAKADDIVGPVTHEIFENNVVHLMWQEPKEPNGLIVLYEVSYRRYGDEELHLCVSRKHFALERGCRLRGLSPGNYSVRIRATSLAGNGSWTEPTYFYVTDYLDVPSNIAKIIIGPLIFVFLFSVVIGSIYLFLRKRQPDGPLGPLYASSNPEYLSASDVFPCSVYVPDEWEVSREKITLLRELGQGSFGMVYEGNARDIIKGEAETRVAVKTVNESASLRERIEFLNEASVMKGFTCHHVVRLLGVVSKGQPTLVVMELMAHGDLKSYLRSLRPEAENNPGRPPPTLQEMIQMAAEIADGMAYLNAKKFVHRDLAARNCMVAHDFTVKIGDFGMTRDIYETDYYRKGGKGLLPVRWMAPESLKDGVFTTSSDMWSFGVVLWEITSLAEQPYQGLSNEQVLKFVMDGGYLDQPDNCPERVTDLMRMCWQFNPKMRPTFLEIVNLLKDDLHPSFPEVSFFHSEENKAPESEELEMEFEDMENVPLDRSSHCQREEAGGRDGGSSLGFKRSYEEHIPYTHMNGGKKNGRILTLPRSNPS
T7 sequence (P49841 whole entry): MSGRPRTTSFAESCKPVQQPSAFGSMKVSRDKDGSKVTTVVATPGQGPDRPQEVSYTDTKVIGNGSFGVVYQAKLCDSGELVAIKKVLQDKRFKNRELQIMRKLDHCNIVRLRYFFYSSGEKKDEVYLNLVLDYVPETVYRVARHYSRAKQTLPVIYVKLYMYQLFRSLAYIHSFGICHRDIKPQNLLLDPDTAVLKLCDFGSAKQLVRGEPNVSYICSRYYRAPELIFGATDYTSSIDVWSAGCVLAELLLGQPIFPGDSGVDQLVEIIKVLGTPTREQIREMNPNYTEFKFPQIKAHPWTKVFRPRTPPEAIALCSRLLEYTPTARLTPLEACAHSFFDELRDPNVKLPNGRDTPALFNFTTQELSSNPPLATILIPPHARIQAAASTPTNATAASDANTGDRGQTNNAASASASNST
T9 sequence (Q8IW41 whole entry, species assumed): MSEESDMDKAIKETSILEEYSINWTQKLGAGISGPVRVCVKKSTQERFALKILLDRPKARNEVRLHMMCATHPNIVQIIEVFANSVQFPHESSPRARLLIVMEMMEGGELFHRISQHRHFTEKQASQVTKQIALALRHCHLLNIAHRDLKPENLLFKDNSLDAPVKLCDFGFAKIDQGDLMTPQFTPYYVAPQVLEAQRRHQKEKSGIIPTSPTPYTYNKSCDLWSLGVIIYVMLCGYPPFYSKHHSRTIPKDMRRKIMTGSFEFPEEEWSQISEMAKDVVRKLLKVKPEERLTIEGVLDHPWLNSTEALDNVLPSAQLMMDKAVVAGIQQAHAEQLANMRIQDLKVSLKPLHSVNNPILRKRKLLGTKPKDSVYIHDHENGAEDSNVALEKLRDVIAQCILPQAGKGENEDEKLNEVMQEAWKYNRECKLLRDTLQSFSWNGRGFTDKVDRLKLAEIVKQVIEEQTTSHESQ

Compound `NCCN1C(=O)S/C(=C\CCC2CCCCC2)C1=O` [Example 4, 3-(2-aminoethyl)-5-(3-cyclohexylpropylidene)thiazolidine-2,4-dione] has a GI50 [1] of 2.01 µM, a GI50 [2] of 1.72 µM and a GI50 [3] of 2.2 µM. The GI50 [4] was 3.13 µM, the GI50 [5] was 1.98 µM and the GI50 [6] was 1.77 µM. For the same compound, the GI50 [7] was 2.04 µM, the GI50 [8] was 5.1 µM and the GI50 [9] was 4.56 µM. For the same compound, the GI50 [10] was 2.14 µM, the GI50 [11] was 2.47 µM and the GI50 [12] was 9.98 µM. For the same compound, the GI50 [13] was 4.46 µM, the GI50 [14] was 1.73 µM and the GI50 [15] was 1.86 µM. It also gave a GI50 [16] of 1.85 µM, a GI50 [17] of 1.69 µM and a GI50 [18] of 1.9 µM. The GI50 [19] was 1.76 µM, the GI50 [20] was 2.5 µM and the GI50 [21] was 1.89 µM. It also gave a GI50 [22] of 2.38 µM, a GI50 [23] of 1.95 µM and a GI50 [24] of 1.68 µM. The GI50 [25] was 1.4 µM, the inhibition at 10 µM [26] was -3% and the “% Inhibition” value [27] was 60%. The inhibition at 10 µM [28] was 38%, the inhibition at 10 µM [29] was 6% and the inhibition at 10 µM [30] was 71%. It also gave an inhibition at 10 µM [31] of 45%, an inhibition at 10 µM [32] of 3% and an inhibition at 10 µM [33] of 0%. For the same compound, the inhibition at 10 µM [34] was -2%, the inhibition at 10 µM [35] was 4% and the inhibition at 10 µM [36] was 0%. It also gave an inhibition at 10 µM [37] of 16%, an inhibition at 10 µM [38] of 0% and an inhibition at 10 µM [39] of -3%. The inhibition at 10 µM [40] was 4%.
